# From patent publication US12485110B2, “Use of ergothioneine for extending lifespan or improving healthspan” (NANJING NUTRABUILDING BIO-TECH CO., LTD., priority 2022, dated 2025)
# Assays:
# C. elegans [1] = assay: Differential gene expression by mRNA sequencing (RNA-Seq); type: in vivo; details: for Number of genes differentially expressed above threshold: 5 mM vs control
# Description: More than 150 day-1 adult worms per replicate were harvested, cleaned by filtration, and frozen at −80° C. in Trizol. To extract RNA, samples were thawed, vigorously vortexed, and processed using the Direct-zol RNA Miniprep Kit (Zymo Research). All samples exceeded our threshold for RNA quantity and quality.
# RNA samples were submitted to Novogene Co. Ltd and subjected to more stringent QC, being tested on a Qubit for concentration and run on an agarose gel and on the Agilent 2100 to assess RNA quality and integrity.
# The total RNA is then enriched for poly-mRNA using oligo(dT) paramagnetic beads. DNA libraries were then constructed from this input mRNA using the NEB Next Ultra™ II RNA Library Prep Kit. This creates a ready-to-sequence dsDNA library that retains the strand-specific information in the original mRNA. These libraries were then further tested by the Qubit for concentration and the Agilent 2100 for library size distribution and quality. In order to properly pool the libraries and load them onto sequencing lanes to ensure the correct number of reads per sample, an even more precise quantification of the library was done via qPCR, and the samples were loaded onto the NovaSeq 6000 platform for a paired-end sequencing run of 150 bp for each end (PE150). The loading concentrations were designed to obtain at least 6.0 Gb (which is the number of billion bases of raw data, determined by the number of reads multiplied by the length of each read).
# Sequencing run data quality control was performed both by Novogene and again by inventors of this application. The raw data set was analyzed for: • 1. The distribution of base quality along the length of the sequencing read; • 2. The distribution of error rate along the length of the sequencing read; • 3. The distribution of A/T/G/C bases along the length of the sequencing read; • 4. The distribution of raw data filtering results based on the following three criteria: • a. Removing reads containing adapter sequence, • b. Remove reads with N>10% (where N means “base cannot be determined”), • c. Remove reads with a low quality (Qscore<=5) for 50% or more of its total bases.
# To identify potential mechanisms of action through which Ergothioneine could affect aging, global gene expression was analyzed by mRNA sequencing (RNA-Seq). Both young (adult day 3) and aged (adult day 10) worms were collected from the same population of worms tested in the lifespan assay.
# Differential gene expression was performed with EdgeR using […] likelihood ratio tests based on fitting linear models. The likelihood ratios were used to determine the p-values which were subsequently corrected for using the BH false discovery rate (fdr) method. Ultimately, differentially expressed genes (DEG) were defined as genes with an fdr-corrected p-value of 0.05 or lower, as well as a change in expression of at least 2-fold in a given between-group comparison. In this study, the comparison groups in Table 5 were used:
# Reading Volcano Plots (log 2 fold change, Log FC): Positive values mean that the gene is more expressed in Treatment, and negative values mean the gene is more expressed in Control. The farther the dot is from the origin point on the x-axis, the greater the expression fold-change. Genes represented in green show a larger than 2-fold change in expression but are not deemed statistically significant due to replicate variability or low read count. Genes represented by red dots show greater than 2-fold change and expression that is statistically significant. The higher on the y-axis, the greater the calculated level of significance.
# C. elegans [2] = assay: Growth and development (growth and toxicity) assay; type: in vivo
# From the text: C. elegans was used in this study because it has advantages including having all the physiological properties of an animal, the ability to replicate human diseases, and a fast life cycle. The body of C. elegans is encased in a selectively permeable cuticle that only permits some compounds to be absorbed efficiently through the skin, so the most reliable mechanism for delivering compounds to the worms is through ingestion. Water-soluble compounds permeate the media and food and are readily taken up by the worms.
# Making culturing plates with ergothioneine: C. elegans is usually grown in the laboratory using E. coli as a food source. Nematode Growth Medium (NGM) plates have been prepared by aseptically pouring NGM agar into petri plates. Ergothioneine was dissolved in water to make a working solution of 0.5 M and then mixed with E. coli liquid culture before seeding on NGM agar plates. The seeding spots were dried slowly, allowing ergothioneine to diffuse into the food bacteria and the agar for at least 24 hours before worms are introduced. The indicated ergothioneine dosages (0, 640 nM, 3.2 μM, 16 μM, 80 μM, 400 μM, 2 mM, and 10 mM) are based on the total volume of the plates.
# High-resolution imaging and automated detection were used to precisely measure the growth rate of C. elegans worms from hatching to the first day of adulthood (total of 4 days). The C. elegans growth and development assay is highly sensitive and widely used in toxicology studies. Performing this test over a range of doses helps to identify a set of doses that have a physiological impact and exclude dose ranges that are likely too toxic to benefit lifespan.
# [3] = 5 mM vs vehicle control, Day 10, log 2 fold change
# [4] = 5 mM vs. vehicle control, Day 3, log 2 fold change
smiles,measurement,setting,value
"C[N+](C)(C)[C@@H](Cc1c[nH]c(=S)[nH]1)C(=O)[O-] [Ergo, Ergothioneine]",Number of genes differentially expressed above threshold,"C. elegans [1]; Day 3, cpr-1, mtl-1, argk-1, fdr P 0.05 or lower and at least 2-fold",3
same,Number of genes differentially expressed above threshold,"C. elegans [1]; Day 10, F55G11.4",1
same,"log FC, gene C30G12.2",C. elegans [1]; [3],0.55
same,"log FC, gene F55G11.4",C. elegans [1]; [3],−1.09
same,"log FC, gene K07C11.7",C. elegans [1]; [3],−0.43
same,"log FC, gene TO5E12.6",C. elegans [1]; [3],0.62
same,"log FC, gene Y39B6A. 1",C. elegans [1]; [3],−0.38
same,"log FC, gene Y94H6A.10",C. elegans [1]; [3],0.43
same,"log FC, gene clec-150",C. elegans [1]; [3],−0.45
same,"log FC, gene col-19",C. elegans [1]; [3],−0.47
same,"log FC, gene dod-6",C. elegans [1]; [3],0.69
same,"log FC, gene dod-24",C. elegans [1]; [3],−0.49
same,"log FC, gene folt-2",C. elegans [1]; [3],−0.49
same,"log FC, gene pmp-5",C. elegans [1]; [3],−0.64
same,"log FC, gene pmt-2",C. elegans [1]; [3],−0.38
same,"log FC, gene smd-1",C. elegans [1]; [3],0.26
same,"log FC, gene thn-2",C. elegans [1]; [3],0.31
same,"Log FC, gene C14C6.5",C. elegans [1]; [4],−0.59
same,"Log FC, gene F16B4.4",C. elegans [1]; [4],0.66
same,"Log FC, gene F28B4.3",C. elegans [1]; [4],−0.48
same,"Log FC, gene F53A9.8",C. elegans [1]; [4],−0.73
same,"Log FC, gene F57F4.4",C. elegans [1]; [4],−0.43
same,"Log FC, gene Y39B6A. 1",C. elegans [1]; [4],−0.95
same,"Log FC, gene argk-1",C. elegans [1]; [4],1.14
same,"Log FC, gene col-95",C. elegans [1]; [4],−0.56
same,"Log FC, gene col-124",C. elegans [1]; [4],1.76
same,"Log FC, gene cpr-1",C. elegans [1]; [4],−2.10
same,"Log FC, gene ctsa-1.2",C. elegans [1]; [4],−0.48
same,"Log FC, gene ctsa-2",C. elegans [1]; [4],0.50
same,"Log FC, gene folt-2",C. elegans [1]; [4],−0.54
same,"Log FC, gene hacd-1",C. elegans [1]; [4],−1.06
same,"Log FC, gene ilys-5",C. elegans [1]; [4],−0.57
same,"Log FC, gene irg-5",C. elegans [1]; [4],1.39
same,"Log FC, gene lys-7",C. elegans [1]; [4],−0.70
same,"Log FC, gene mtl-1",C. elegans [1]; [4],−1.63
same,"Log FC, gene smd-1",C. elegans [1]; [4],−0.35
same,"Log FC, gene vit-4",C. elegans [1]; [4],−0.64
same,Number and size of worms (FIG. 1),"C. elegans [2]; 16 μM and 400 μM, L4 and day 1 adult",comparable number and size
same,Number of worms (FIG. 1),"C. elegans [2]; 10 mM, L4 and day 1 adult stages",less worms
same,Size of young adults (FIG. 2),"C. elegans [2]; 10 mM, day 1 adult stage",smaller than normal
same,"Growth rate (worm size, FIG. 2)","C. elegans [2]; concentrations up to 2 mM, day 1 adult stage",largely unaffected
same,"Growth rate (worm size, FIG. 2)","C. elegans [2]; concentrations up to 10 mM, L4 stage",largely unaffected
